Test [1] concerns Dirofilaria immitis R isolate (reduced sensitivity to macrocyclic lactones). As to the kind of experiment: Method D study 1: efficacy against induced D. immitis infection in beagle dogs (R isolate). As to conditions: beagles. Format: in vivo.
Test [2] deals with Dirofilaria immitis S isolate (sensitive to macrocyclic lactones). Kind of test: Method D study 2: efficacy against induced D. immitis infection in beagle dogs (S isolate). The note with it: beagles. Format: in vivo.
The mark [3] stands for this setting: oral solution 2.5 mg/kg + ivermectin 6 μg/kg, days 0, 32, 60, 90 & 119, necropsy Day 150.

Regarding `CC(C)C[C@H]1C(=O)O[C@H](C)C(=O)N(C)[C@@H](CC(C)(C)F)C(=O)O[C@H](Cc2ccc(C(F)(F)F)cc2)C(=O)N(C)[C@@H](CC(C)C)C(=O)O[C@H](C)C(=O)N(C)[C@@H](CC(C)(C)F)C(=O)O[C@H](Cc2ccc(C(F)(F)F)cc2)C(=O)N1C` [Compound 4-18], in test [1] (setting [3]), the Efficacy amounted to 100%.

As to `CC(C)C[C@H]1C(=O)O[C@H](C)C(=O)N(C)[C@@H](CC(C)(C)F)C(=O)O[C@H](Cc2ccc(N3CCOCC3)cc2)C(=O)N(C)[C@@H](CC(C)C)C(=O)O[C@H](C)C(=O)N(C)[C@@H](CC(C)(C)F)C(=O)O[C@H](Cc2ccc(N3CCOCC3)cc2)C(=O)N1C` [Compound 6-18], the Efficacy in test [1] (setting [3]) is given as 100%.

`CC(C)C[C@H]1C(=O)O[C@H](C)C(=O)N(C)[C@@H](CC(C)(C)F)C(=O)O[C@H](Cc2ccc(C3CCOCC3)cc2)C(=O)N(C)[C@@H](CC(C)C)C(=O)O[C@H](C)C(=O)N(C)[C@@H](CC(C)(C)F)C(=O)O[C@H](Cc2ccc(C3CCOCC3)cc2)C(=O)N1C` [Compound 7-18]: the Efficacy in test [2] (oral solution 0.5 mg/kg, days 0, 30, 60, 90 & 120, necropsy Day 155) turned out to be 100%; in test [2] (oral solution 2.5 mg/kg, days 0, 30, 60 & 154, necropsy Day 155) it was 100%; in test [1] (oral solution 1.0 mg/kg + ivermectin 6 μg/kg, days 0, 32, 60, 90 & 119, necropsy Day 150), 100%.

`CC(C)C[C@H]1C(=O)O[C@H](Cc2ccc(C3CCOCC3)cc2)C(=O)N(C)[C@@H](CC(C)C)C(=O)O[C@H](C)C(=O)N(C)[C@@H](CC(C)C)C(=O)O[C@H](Cc2ccc(C3CCOCC3)cc2)C(=O)N(C)[C@@H](CC(C)C)C(=O)O[C@H](C)C(=O)N1C` [Compound 7-27]: the Efficacy in test [1] (setting [3]) came out at 100%.

Take `CC(C)C[C@H]1C(=O)O[C@H](Cc2ccc(N3CCOCC3)cc2)C(=O)N(C)[C@@H](CC(C)C)C(=O)O[C@H](C)C(=O)N(C)[C@@H](CC(C)C)C(=O)O[C@H](Cc2ccc(N3CCOCC3)cc2)C(=O)N(C)[C@@H](CC(C)C)C(=O)O[C@H](C)C(=O)N1C` [emodepside, reference compound]: the Efficacy in test [1] (setting [3]) came out at 98.8%; in test [1] (oral solution 2.5 mg/kg + ivermectin 6 μg/kg, days 0, 32, 60, 90 & 119, necropsy Day 150, listed as Emodepside), 98.8%.

(Values after patent US12286455B2, “Anthelmintic depsipeptide compounds” (BOEHRINGER INGELHEIM ANIMAL HEALTH USA INC., priority 2015, dated 2025).)
